Assay results from ChEMBL document CHEMBL4414641, “Chemical Constituents of Anneslea fragrans and Their Antiausterity Activity against the PANC-1 Human Pancreatic Cancer Cell Line” (J Nat Prod, 2019).
Calls of active or inactive are those of the source. No cut-off for these calls is given here.

Tests used:
PANC-1 [1] = assay: Anti-austerity activity against nutrient-deprived human PANC1 cells assessed as cell death incubated for 24 hrs by WST-8 assay; type: functional
PANC-1 [2] = assay: Cytotoxicity against nutrient-rich DMEM cultured human PANC1 cells at PC50 incubated for 24 hrs by WST-8 assay; type: cell-based; details: panc-1, 24 h
PANC-1 [3] = assay: Inhibition of cell migration in human PANC1 cells assessed as open wound area at 100 uM cultured in nutrient rich DMEM medium measured after 48 hrs by quantitative real-time imaging based wound healing assay (reference value: 12%); type: functional; set-up: scale not given: the % may be the effect or the level left
PANC-1 [4] = assay: Inhibition of cell migration in human PANC1 cells assessed as closed wound area at 100 uM cultured in nutrient rich DMEM medium measured within 24 hrs by quantitative real-time imaging based wound healing assay (reference value: 100%); type: functional; set-up: scale not given: the % may be the effect or the level left
PANC-1 [5] = assay: Inhibition of cell migration in human PANC1 cells assessed as decrease in velocity of cell migration at 100 uM cultured in nutrient rich DMEM medium measured every 15 mins for 72 hrs by quantitative real-time imaging analysis; type: functional, cell-based
PANC-1 [6] = assay: Inhibition of cell migration in human PANC1 cells assessed as open wound area at 100 uM cultured in nutrient rich DMEM medium measured after 72 hrs by quantitative real-time imaging based wound healing assay (reference value: 5%); type: functional; set-up: scale not given: the % may be the effect or the level left
PANC-1 [7] = assay: Inhibition of cell migration in human PANC1 cells at 100 uM cultured in nutrient rich DMEM medium measured every 15 mins for 72 hrs by quantitative real-time imaging analysis; type: functional, cell-based
PANC-1 [8] = assay: Inhibition of cell migration in human PANC1 cells assessed as open wound area at 100 uM cultured in nutrient rich DMEM medium measured after 24 hrs by quantitative real-time imaging based wound healing assay relative to control; type: functional; set-up: scale not given: the % may be the effect or the level left

Row | Structure (SMILES) | PC50 (PANC-1 [1]) [µM] | Activity (PANC-1 [2]) | further results
1 | C[C@@H]1O[C@@H](O[C@H]2[C@H](Oc3c(-c4ccc(O)cc4)oc4cc(O)cc(O)c4c3=O)O[C@H](CO)[C@@H](O)[C@@H]2O)[C@H](O)[C@H](O)[C@H]1O | 17.4 | Non-Toxic | –
2 | O=C(CCc1ccc(O)c(O)c1)c1ccc(O)cc1O | – | Non-Toxic | –
3 | O=C(CCc1ccc(O)c(O)c1)c1ccc(O[C@@H]2O[C@H](CO)[C@@H](O)[C@H](O)[C@H]2O)cc1O | 10.4 | Non-Toxic | –
4 | O=C(CCc1ccc(O)cc1)c1ccc(O)cc1O[C@@H]1O[C@H](CO)[C@@H](O)[C@H](O)[C@H]1O | >100 | Non-Toxic | –
5 | O=C(/C(O)=C/c1ccc(O)c(O)c1)c1ccc(O[C@H]2COC(=O)[C@@H]2O)cc1O | >100 | Non-Toxic | –
6 | CC1(C)OC[C@H]2O[C@@H](Oc3ccc(C(=O)CCc4ccc(O)cc4)c(O)c3)[C@H](O)[C@@H](O)[C@@H]2O1 | 60.9 | Non-Toxic | Activity (PANC-1 [3]): 81%; Activity (PANC-1 [4]): 38%; inhibition (PANC-1 [5]): Active; Activity (PANC-1 [6]): 72%; inhibition (PANC-1 [7]): Active; Activity (PANC-1 [8]): 93%
7 | CC[C@H](/C=C/[C@@H](C)[C@H]1CC[C@H]2C3=CC[C@H]4C[C@@H](O)CC[C@]4(C)[C@H]3CC[C@]12C)C(C)C | 58.1 | Non-Toxic | –
8 | Oc1cc(O)c2c(c1)O[C@H](c1ccc(O)c(O)c1)[C@H](O)C2 [(-)-EPICATECHIN] | 14.7 | Non-Toxic | –
9 | C[C@@H]1O[C@@H](Oc2c(-c3ccc(O)cc3)oc3cc(O)cc(O)c3c2=O)[C@H](O)[C@H](O)[C@H]1O [AFZELIN] | 8.9 | Non-Toxic | –
10 | COc1cc(C[C@H]2C(=O)OC[C@@H]2Cc2ccc(OC)c(OC)c2)ccc1O [ARCTIGENIN] | 0.7 | Non-Toxic | –
11 | C=C(C)[C@@H]1CC[C@]2(CO)CC[C@]3(C)[C@H](CC[C@@H]4[C@@]5(C)CC[C@H](O)C(C)(C)[C@@H]5CC[C@]43C)[C@@H]12 [BETULIN] | 8.4 | Non-Toxic | –
12 | O=C(/C=C/c1ccc(O)c(O)c1)c1ccc(O)cc1O [BUTEIN] | 67 | Non-Toxic | –
13 | O=C(CCc1ccc(O)cc1)c1ccc(O[C@@H]2O[C@H](CO)[C@@H](O)[C@H](O)[C@H]2O)cc1O [CONFUSOSIDE] | 82.6 | Non-Toxic | –
14 | O=c1c(O[C@@H]2O[C@H](CO)[C@@H](O)[C@H](O)[C@H]2O)c(-c2ccc(O)c(O)c2)oc2cc(O)cc(O)c12 [ISOQUERCETIN] | >100 | Non-Toxic | –
15 | COc1cc2oc(=O)ccc2cc1O [ISOSCOPOLETIN] | 26.9 | Non-Toxic | –
16 | C=C(C)[C@@H]1CC[C@]2(C)CC[C@]3(C)[C@H](CC[C@@H]4[C@@]5(C)CC[C@H](O)C(C)(C)[C@@H]5CC[C@]43C)[C@@H]12 [LUPEOL] | 38.6 | Non-Toxic | –
17 | C[C@@H]1O[C@@H](OC[C@H]2O[C@@H](Oc3c(-c4ccc(O)cc4)oc4cc(O)cc(O)c4c3=O)[C@H](O)[C@@H](O)[C@@H]2O)[C@H](O)[C@H](O)[C@H]1O [NICOTIFLOROSIDE] | 67.1 | Non-Toxic | –
18 | O=c1c(O)c(-c2ccc(O)c(O)c2)oc2cc(O)cc(O)c12 [QUERCETIN] | 21.8 | Non-Toxic | –
